How the values were obtained:
oval-leafed pondweed [1] = test: Test Example 1: herbicidal activity, application before weed generation under submerged conditions (Table 16, symbol C); assay type: in vivo, oval-leafed pondweed (Monochoria vaginalis)
In short: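 Emulsion formulation, water-diluted to set dose, was put onto the flooded surface (4 cm depth, alluvial soil) the same day weeds were sown and 2.5-leaf rice transplanted. After 3 weeks at 25-30 °C under glass, each species was rated 0 (≤5% kill) to 5 (≥90% kill).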

late watergrass = test: Test Example 2: herbicidal activity, application during weed generation under submerged conditions (Table 17, symbol A); assay type: in vivo, late watergrass (Echinochloa oryzicola); settings: application during weed generation, submerged conditions
In short: (§1)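 Steps: fill Wagner pots with alluvial soil; add water to give 4 cm depth; sow the species mixed; grow under glass at 25–30° C.; at 1–2 leaves apply water-diluted emulsion formulation to the water surface at a fixed herbicide amount; score after 3 weeks.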

Japanese bulrush = test: Test Example 2: herbicidal activity, application during weed generation under submerged conditions (Table 17, symbol B); assay type: in vivo, Japanese bulrush (Schoenoplectus juncoides); settings: application during weed generation, submerged conditions
In short: as §1

oval-leafed pondweed [2] = test: Test Example 2: herbicidal activity, application during weed generation under submerged conditions (Table 17, symbol C); assay type: in vivo, oval-leafed pondweed (Monochoria vaginalis); settings: application during weed generation, submerged conditions
In short: as §1

barnyard grass = test: Test Example 4: herbicidal effect by soil treatment (Table 19, symbol H); assay type: in vivo, barnyard grass (Echinochloa crus-galli)
In short: (§2)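 Three weeks of greenhouse growth at 25° C. to 30° C. followed a uniform surface spray of water-diluted emulsion at a predetermined herbicide amount. Seeds had been sown beforehand under about 1.5 cm of sterilized diluvial soil. Grading followed criteria set out in an earlier test.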

wild oat [3] = test: Test Example 4: herbicidal effect by soil treatment (Table 19, symbol I); assay type: in vivo, wild oat (Avena fatua)
In short: as §2

Italian ryegrass = test: Test Example 4: herbicidal effect by soil treatment (Table 19, symbol K); assay type: in vivo, Italian ryegrass (Lolium multiflorum)
In short: as §2

windgrass = test: Test Example 4: herbicidal effect by soil treatment (Table 19, symbol L); assay type: in vivo, windgrass (Apera spica-venti)
In short: as §2

velvetleaf = test: Test Example 4: herbicidal effect by soil treatment (Table 19, symbol M); assay type: in vivo, velvetleaf (Abutilon theophrasti)
In short: as §2

lambsquarters = test: Test Example 4: herbicidal effect by soil treatment (Table 19, symbol O); assay type: in vivo, lambsquarters (Chenopodium album)
In short: as §2

chickweed [4] = test: Test Example 4: herbicidal effect by soil treatment (Table 19, symbol P); assay type: in vivo, common chickweed (Stellaria media)
In short: as §2

false cleavers [5] = test: Test Example 4: herbicidal effect by soil treatment (Table 19, symbol Q); assay type: in vivo, false cleavers (Galium spurium)
In short: as §2

persian speedwell = test: Test Example 4: herbicidal effect by soil treatment (Table 19, symbol R); assay type: in vivo, Persian speedwell (Veronica persica)
In short: as §2

southern crabgrass = test: Test Example 5: herbicidal effect by foliage application, plastic box (Table 20, symbol F); assay type: in vivo, southern crabgrass (Digitaria ciliaris); settings: foliage application, three weeks after application
In short: (§3)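 Plants sown in sterilized diluvial soil and grown 14 days in a greenhouse at 25° C to 30° C, then sprayed on the foliage with the compound's emulsion diluted in water to a predetermined herbicide amount. Injury to weeds and crops scored three weeks after application on a visual rating scale.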

wild oat [6] = test: Test Example 5: herbicidal effect by foliage application, plastic box (Table 20, symbol I); assay type: in vivo, wild oat (Avena fatua); settings: foliage application, three weeks after application
In short: as §3

chickweed [7] = test: Test Example 5: herbicidal effect by foliage application, plastic box (Table 20, symbol P); assay type: in vivo, common chickweed (Stellaria media); settings: foliage application, three weeks after application
In short: as §3

false cleavers [8] = test: Test Example 5: herbicidal effect by foliage application, plastic box (Table 20, symbol Q); assay type: in vivo, false cleavers (Galium spurium); settings: foliage application, three weeks after application
In short: as §3

[9] = amount of applied herbicide 224 g/ha
[10] = amount of applied herbicide 304 g/ha
[11] = amount of applied herbicide 320 g/ha

## CCCC(=O)Oc1c(C)nn(C)c(=O)c1-c1c(-c2ccccc2OC)sc2cc(C)ccc12 [3-050]
oval-leafed pondweed [1]; [9]
  Herbicidal effect, C: oval-leafed pondweed: 1 (Herbicidal rate of 5% or more and less than 20%)
Late watergrass; AAH 224 g/ha
  herbicidal effect rating, A: late watergrass: 0 (Herbicidal rate of 5% or less (almost no effect))
Japanese bulrush; AAH 224 g/ha
  herbicidal effect rating, B: Japanese bulrush: 1 (Herbicidal rate of 5% or more and less than 20%)
oval-leafed pondweed [2]; AAH 224 g/ha
  herbicidal effect rating, C: oval-leafed pondweed: 3 (Herbicidal rate of 40% or more and less than 70%)
Barnyard grass; [9]
  H: barnyard grass, herbicidal effect grade: 0 (Herbicidal rate of 5% or less (almost no effect))
Wild oat [3]; [9]
  I: wild oat, herbicidal effect grade: 0 (Herbicidal rate of 5% or less (almost no effect))
Italian ryegrass; [9]
  K: Italian ryegrass, herbicidal effect grade: 1 (Herbicidal rate of 5% or more and less than 20%)
windgrass; [9]
  L: windgrass, herbicidal effect grade: 2 (Herbicidal rate of 20% or more and less than 40%)
velvetleaf; [9]
  M: velvetleaf, herbicidal effect grade: 0 (Herbicidal rate of 5% or less (almost no effect))
lambsquarters; [9]
  O: lambsquarters, herbicidal effect grade: 0 (Herbicidal rate of 5% or less (almost no effect))
Chickweed [4]; [9]
  P: chickweed, herbicidal effect grade: 3 (Herbicidal rate of 40% or more and less than 70%)
False cleavers [5]; [9]
  Q: false cleavers, herbicidal effect grade: 0 (Herbicidal rate of 5% or less (almost no effect))
Persian speedwell; [9]
  R: persian speedwell, herbicidal effect grade: 1 (Herbicidal rate of 5% or more and less than 20%)
Southern crabgrass; 224 g/ha
  F: southern crabgrass, herbicidal effect grade: 4 (Herbicidal rate of 70% or more and less than 90%)
Wild oat [6]; 224 g/ha
  I: wild oat, herbicidal effect grade: 4 (Herbicidal rate of 70% or more and less than 90%)
Chickweed [7]; 224 g/ha
  P: chickweed, herbicidal effect grade: 5 (Herbicidal rate of 90% or more (almost completely withered))
False cleavers [8]; 224 g/ha
  Q: false cleavers, herbicidal effect grade: 4 (Herbicidal rate of 70% or more and less than 90%)

## CCCC(=O)Oc1c(C)nn(C)c(=O)c1-c1c(-c2ccccc2OCC)sc2cc(C)ccc12 [3-054]
oval-leafed pondweed [1]; [10]
  Herbicidal effect, C: oval-leafed pondweed: 4 (Herbicidal rate of 70% or more and less than 90%)
Late watergrass; AAH 304 g/ha
  herbicidal effect rating, A: late watergrass: 2 (Herbicidal rate of 20% or more and less than 40%)
Japanese bulrush; AAH 304 g/ha
  herbicidal effect rating, B: Japanese bulrush: 3 (Herbicidal rate of 40% or more and less than 70%)
oval-leafed pondweed [2]; AAH 304 g/ha
  herbicidal effect rating, C: oval-leafed pondweed: 3 (Herbicidal rate of 40% or more and less than 70%)
Barnyard grass; [10]
  H: barnyard grass, herbicidal effect grade: 0 (Herbicidal rate of 5% or less (almost no effect))
Wild oat [3]; [10]
  I: wild oat, herbicidal effect grade: 1 (Herbicidal rate of 5% or more and less than 20%)
Italian ryegrass; [10]
  K: Italian ryegrass, herbicidal effect grade: 3 (Herbicidal rate of 40% or more and less than 70%)
windgrass; [10]
  L: windgrass, herbicidal effect grade: 3 (Herbicidal rate of 40% or more and less than 70%)
velvetleaf; [10]
  M: velvetleaf, herbicidal effect grade: 0 (Herbicidal rate of 5% or less (almost no effect))
lambsquarters; [10]
  O: lambsquarters, herbicidal effect grade: 0 (Herbicidal rate of 5% or less (almost no effect))
Chickweed [4]; [10]
  P: chickweed, herbicidal effect grade: 3 (Herbicidal rate of 40% or more and less than 70%)
False cleavers [5]; [10]
  Q: false cleavers, herbicidal effect grade: 2 (Herbicidal rate of 20% or more and less than 40%)
Persian speedwell; [10]
  R: persian speedwell, herbicidal effect grade: 3 (Herbicidal rate of 40% or more and less than 70%)
Southern crabgrass; 304 g/ha
  F: southern crabgrass, herbicidal effect grade: 5 (Herbicidal rate of 90% or more (almost completely withered))
Wild oat [6]; 304 g/ha
  I: wild oat, herbicidal effect grade: 5 (Herbicidal rate of 90% or more (almost completely withered))
Chickweed [7]; 304 g/ha
  P: chickweed, herbicidal effect grade: 5 (Herbicidal rate of 90% or more (almost completely withered))
False cleavers [8]; 304 g/ha
  Q: false cleavers, herbicidal effect grade: 5 (Herbicidal rate of 90% or more (almost completely withered))

## COc1cc(F)ccc1-c1sc2cc(C)ccc2c1-c1c(O)c(C)nn(C)c1=O [3-055]
oval-leafed pondweed [1]; [11]
  Herbicidal effect, C: oval-leafed pondweed: 3 (Herbicidal rate of 40% or more and less than 70%)
Late watergrass; AAH 320 g/ha
  herbicidal effect rating, A: late watergrass: 1 (Herbicidal rate of 5% or more and less than 20%)
Japanese bulrush; AAH 320 g/ha
  herbicidal effect rating, B: Japanese bulrush: 1 (Herbicidal rate of 5% or more and less than 20%)
oval-leafed pondweed [2]; AAH 320 g/ha
  herbicidal effect rating, C: oval-leafed pondweed: 3 (Herbicidal rate of 40% or more and less than 70%)
Barnyard grass; [11]
  H: barnyard grass, herbicidal effect grade: 0 (Herbicidal rate of 5% or less (almost no effect))
Wild oat [3]; [11]
  I: wild oat, herbicidal effect grade: 3 (Herbicidal rate of 40% or more and less than 70%)
Italian ryegrass; [11]
  K: Italian ryegrass, herbicidal effect grade: 0 (Herbicidal rate of 5% or less (almost no effect))
windgrass; [11]
  L: windgrass, herbicidal effect grade: 2 (Herbicidal rate of 20% or more and less than 40%)
velvetleaf; [11]
  M: velvetleaf, herbicidal effect grade: 0 (Herbicidal rate of 5% or less (almost no effect))
lambsquarters; [11]
  O: lambsquarters, herbicidal effect grade: 0 (Herbicidal rate of 5% or less (almost no effect))
Chickweed [4]; [11]
  P: chickweed, herbicidal effect grade: 4 (Herbicidal rate of 70% or more and less than 90%)
False cleavers [5]; [11]
  Q: false cleavers, herbicidal effect grade: 3 (Herbicidal rate of 40% or more and less than 70%)
Persian speedwell; [11]
  R: persian speedwell, herbicidal effect grade: 4 (Herbicidal rate of 70% or more and less than 90%)
Southern crabgrass; 320 g/ha
  F: southern crabgrass, herbicidal effect grade: 5 (Herbicidal rate of 90% or more (almost completely withered))
Wild oat [6]; 320 g/ha
  I: wild oat, herbicidal effect grade: 5 (Herbicidal rate of 90% or more (almost completely withered))
Chickweed [7]; 320 g/ha
  P: chickweed, herbicidal effect grade: 5 (Herbicidal rate of 90% or more (almost completely withered))
False cleavers [8]; 320 g/ha
  Q: false cleavers, herbicidal effect grade: 4 (Herbicidal rate of 70% or more and less than 90%)

— US20230085307A1, “PYRIDAZINONE COMPOUND AND HERBICIDE” (NISSAN CHEMICAL CORPORATION, priority 2019, published 2023)
